Where a SMILES comes first, the peptide text is derived from it. Bridges are numbered along the chain shown (N, C = ends).
Experiments:
WT Nav1.7 = biological target: T1, WT Nav1.7 (Homo sapiens, UniProt Q15858); test: Time course of Nav1.7 inhibition and recovery upon washing; format: cell-based; conditions: 1 μM, n = 4
T1 construct: expressed in transfected cells; host or cells: HEK293T
Excerpt: (§1) The cDNA genes encoding rat Nav1.4 and human Nav1.7 were subcloned into vectors pRGB4 and pcDNA3.1-mod, respectively. Mutations of rNav1.4 (N655D, Q657E, and N655D/Q657E) and hNav1.7 (D816N, E818Q, and D816N/E818Q) were constructed using the Gene Tailor Site-Directed Mutagenesis system (Invitrogen, Carlsbad, CA, United States), according to the manufacturer’s instructions. Nav1.2–Nav1.7 and mutant plasmids together with eGFP were transiently transfected into HEK293T cells while Nav1.8 together with eGFP was transiently transfected into ND7/23 cells by Lipofectamine 2000 (Invitrogen, Carlsbad, CA, United States). Additionally, plasmids β1- and β2-eGFP encoding the human β1 and β2 subunits, respectively, were co-transfected with those encoding WT Nav1.7 and Nav1.7 mutations in HEK293T cells. […] Cells with green fluorescent protein fluorescence were selected for whole-cell patch-clamp recordings 24 h after transfection.
(§2) Whole-cell patch-clamp recordings were performed at room temperature (20–25°C) using an EPC 10 USB Patch Clamp Amplifier (HEKA, Elektronik, Lambrecht, Germany). […] Data was analyzed by software Igo Pro 6.10A (WaveMetrics, Lake Oswego, OR, United States), SigmaPlot 10.0 (Sigma-Aldrich, St. Louis, MO, United States), OriginPro 8 (OriginLab Corp., Northampton, MA, United States), and GraphPad Prism 5 (GraphPad Software, San Diego, CA, United States). […]

Nav1.4/N655D = test: Whole-cell patch-clamp, Nav1.4/N655D in HEK293T cells; format: cell-based, rat; conditions: 1 μM, n = 4–5 cells
Excerpt: as §1, §2

Nav1.4/Q657E = biological target: T2, Nav1.4/Q657E (Rattus norvegicus, UniProt P15390, Q657E); test: Whole-cell patch-clamp, Nav1.4/Q657E in HEK293T cells; format: cell-based
T2 construct: expressed in transfected cells; host or cells: HEK293T
T2 sequence (P15390 whole entry Q657E): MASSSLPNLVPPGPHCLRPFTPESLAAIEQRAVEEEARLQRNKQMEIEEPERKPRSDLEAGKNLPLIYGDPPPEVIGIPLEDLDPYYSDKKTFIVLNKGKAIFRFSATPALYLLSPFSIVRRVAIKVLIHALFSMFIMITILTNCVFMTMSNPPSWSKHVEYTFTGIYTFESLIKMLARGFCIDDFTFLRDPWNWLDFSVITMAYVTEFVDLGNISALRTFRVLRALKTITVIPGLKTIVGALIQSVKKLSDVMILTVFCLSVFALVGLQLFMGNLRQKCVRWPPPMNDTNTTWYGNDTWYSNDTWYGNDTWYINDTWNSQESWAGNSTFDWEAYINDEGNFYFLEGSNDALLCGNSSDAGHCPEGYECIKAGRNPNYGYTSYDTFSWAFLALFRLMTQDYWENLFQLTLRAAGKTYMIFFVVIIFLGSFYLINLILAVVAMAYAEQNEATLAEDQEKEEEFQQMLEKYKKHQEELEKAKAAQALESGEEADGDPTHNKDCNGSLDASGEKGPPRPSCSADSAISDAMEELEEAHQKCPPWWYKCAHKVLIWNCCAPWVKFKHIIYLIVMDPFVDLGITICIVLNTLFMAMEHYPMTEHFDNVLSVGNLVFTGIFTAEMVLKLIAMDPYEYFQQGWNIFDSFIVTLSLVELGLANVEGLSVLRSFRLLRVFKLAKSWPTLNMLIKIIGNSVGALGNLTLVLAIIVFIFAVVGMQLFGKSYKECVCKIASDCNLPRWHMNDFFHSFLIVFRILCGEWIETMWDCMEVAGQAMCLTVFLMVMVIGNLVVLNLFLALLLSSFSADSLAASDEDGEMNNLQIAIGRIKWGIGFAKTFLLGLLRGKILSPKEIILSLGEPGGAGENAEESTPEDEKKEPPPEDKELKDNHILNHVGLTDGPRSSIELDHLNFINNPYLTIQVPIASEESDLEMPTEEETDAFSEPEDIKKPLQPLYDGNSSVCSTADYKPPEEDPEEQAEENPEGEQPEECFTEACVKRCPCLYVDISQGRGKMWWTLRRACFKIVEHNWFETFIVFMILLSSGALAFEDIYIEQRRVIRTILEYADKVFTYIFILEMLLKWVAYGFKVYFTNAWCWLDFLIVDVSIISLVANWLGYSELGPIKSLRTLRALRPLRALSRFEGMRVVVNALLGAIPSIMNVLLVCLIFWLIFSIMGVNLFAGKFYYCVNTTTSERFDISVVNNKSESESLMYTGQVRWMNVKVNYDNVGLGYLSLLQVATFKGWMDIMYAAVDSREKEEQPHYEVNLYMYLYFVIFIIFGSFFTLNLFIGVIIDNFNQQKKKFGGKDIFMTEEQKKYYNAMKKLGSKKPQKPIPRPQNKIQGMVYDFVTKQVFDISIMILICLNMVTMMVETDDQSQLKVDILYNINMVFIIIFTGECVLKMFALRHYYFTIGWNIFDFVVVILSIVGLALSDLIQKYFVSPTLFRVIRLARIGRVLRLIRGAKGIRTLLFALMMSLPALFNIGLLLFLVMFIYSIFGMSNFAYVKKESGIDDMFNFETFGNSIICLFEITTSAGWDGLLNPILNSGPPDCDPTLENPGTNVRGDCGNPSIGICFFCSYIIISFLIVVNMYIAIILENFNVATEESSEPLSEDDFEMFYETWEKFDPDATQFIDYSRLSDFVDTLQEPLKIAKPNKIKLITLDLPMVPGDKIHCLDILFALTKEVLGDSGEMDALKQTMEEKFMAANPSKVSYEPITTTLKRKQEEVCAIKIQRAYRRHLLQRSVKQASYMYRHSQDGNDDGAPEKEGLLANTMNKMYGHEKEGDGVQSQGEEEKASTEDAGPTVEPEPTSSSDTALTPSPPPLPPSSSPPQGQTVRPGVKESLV
Excerpt: as §1, §2

Nav1.6 = biological target: T3, Nav1.6 (Homo sapiens, UniProt Q9UQD0); test: Whole-cell patch-clamp, Nav1.6 in HEK293T cells; format: cell-based; conditions: mean ± SEM
T3 construct: expressed in transfected cells; host or cells: HEK293T
T3 sequence (Q9UQD0 whole entry): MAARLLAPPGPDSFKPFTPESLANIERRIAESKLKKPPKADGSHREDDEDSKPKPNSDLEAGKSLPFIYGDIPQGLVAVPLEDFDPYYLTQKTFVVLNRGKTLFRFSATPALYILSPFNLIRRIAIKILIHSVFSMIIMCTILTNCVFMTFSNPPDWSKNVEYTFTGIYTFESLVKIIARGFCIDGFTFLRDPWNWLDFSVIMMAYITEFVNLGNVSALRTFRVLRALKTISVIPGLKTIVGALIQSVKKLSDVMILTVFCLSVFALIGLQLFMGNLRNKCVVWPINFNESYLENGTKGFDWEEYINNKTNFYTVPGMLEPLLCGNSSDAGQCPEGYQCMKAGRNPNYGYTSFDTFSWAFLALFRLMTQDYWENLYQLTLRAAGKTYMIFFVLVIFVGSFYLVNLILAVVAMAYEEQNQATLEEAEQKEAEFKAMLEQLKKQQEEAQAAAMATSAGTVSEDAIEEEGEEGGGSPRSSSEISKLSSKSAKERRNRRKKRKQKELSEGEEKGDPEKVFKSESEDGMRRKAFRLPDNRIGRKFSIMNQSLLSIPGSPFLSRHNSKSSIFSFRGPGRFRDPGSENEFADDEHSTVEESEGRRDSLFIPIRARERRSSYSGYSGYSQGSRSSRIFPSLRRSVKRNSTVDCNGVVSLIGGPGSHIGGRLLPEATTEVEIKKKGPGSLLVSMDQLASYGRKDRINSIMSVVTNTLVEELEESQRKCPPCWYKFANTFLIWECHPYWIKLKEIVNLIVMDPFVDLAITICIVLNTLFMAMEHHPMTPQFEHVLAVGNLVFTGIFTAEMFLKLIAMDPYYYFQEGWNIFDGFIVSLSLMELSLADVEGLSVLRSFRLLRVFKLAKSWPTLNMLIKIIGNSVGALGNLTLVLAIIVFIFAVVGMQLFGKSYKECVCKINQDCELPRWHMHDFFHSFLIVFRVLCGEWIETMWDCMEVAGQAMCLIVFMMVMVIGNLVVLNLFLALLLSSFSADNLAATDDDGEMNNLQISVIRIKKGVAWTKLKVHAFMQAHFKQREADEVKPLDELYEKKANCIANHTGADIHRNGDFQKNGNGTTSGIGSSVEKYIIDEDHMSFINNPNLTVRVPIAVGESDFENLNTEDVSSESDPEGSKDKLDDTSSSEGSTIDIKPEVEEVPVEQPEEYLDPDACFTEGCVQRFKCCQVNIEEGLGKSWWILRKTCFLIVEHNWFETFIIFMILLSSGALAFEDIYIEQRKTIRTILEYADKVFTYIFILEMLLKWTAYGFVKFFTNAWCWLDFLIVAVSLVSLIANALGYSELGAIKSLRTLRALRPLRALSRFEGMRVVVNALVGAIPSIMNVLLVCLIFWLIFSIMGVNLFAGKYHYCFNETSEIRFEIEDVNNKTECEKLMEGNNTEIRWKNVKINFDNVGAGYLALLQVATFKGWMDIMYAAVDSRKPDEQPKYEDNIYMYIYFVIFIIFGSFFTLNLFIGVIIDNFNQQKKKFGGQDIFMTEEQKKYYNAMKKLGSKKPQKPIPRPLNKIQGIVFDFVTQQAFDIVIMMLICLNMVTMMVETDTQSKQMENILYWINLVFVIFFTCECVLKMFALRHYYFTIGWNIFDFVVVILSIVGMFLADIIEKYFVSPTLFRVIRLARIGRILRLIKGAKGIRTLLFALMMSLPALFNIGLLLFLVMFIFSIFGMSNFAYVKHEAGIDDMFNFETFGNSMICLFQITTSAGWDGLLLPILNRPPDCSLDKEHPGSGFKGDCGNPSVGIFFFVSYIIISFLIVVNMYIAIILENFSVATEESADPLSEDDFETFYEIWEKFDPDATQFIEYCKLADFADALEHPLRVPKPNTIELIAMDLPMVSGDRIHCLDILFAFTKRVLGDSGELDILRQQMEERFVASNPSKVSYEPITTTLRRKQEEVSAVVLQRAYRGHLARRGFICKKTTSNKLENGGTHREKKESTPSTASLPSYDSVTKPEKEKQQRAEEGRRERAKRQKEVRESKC
Excerpt: as §1, §2

[1] = Adverse effects at the doses used in the mouse pain models; format: in vivo, ICR mice; conditions: dose of Ca2a used in this study (50–200 μg/kg i.p.)
Procedure: The ICR mice (18–22 g) used in this study were purchased from the Experimental Animal Center of SLac-kinda (Changsha, China). The animals were maintained at 20–25°C and freely allowed to standard rodent chow and water ad libitum. Ethical approval for in vivo experiments in animals was approved by the Animal Care and Use Committee (ACUC) at the Hunan Province Animal Management Office (HPAMO).

Nav1.7/D816N = biological target: T4, Nav1.7/D816N (Homo sapiens, UniProt Q15858, D827N); test: Fast inactivation kinetics in Nav1.7/D816N channel; format: cell-based; conditions: 0.2 µM; between -10 mV and +10 mV; n = 7
T4 construct: expressed in transfected cells; host or cells: HEK293T
Excerpt: as §1, with “States).” for “States). Additionally, plasmids β1- and β2-eGFP encoding the human β1 and β2 subunits, respectively, were co-transfected with those encoding WT Nav1.7 and Nav1.7 mutations in HEK293T cells.”
as §2
Fast inactivation time constants were calculated by fitting current decay traces with a single exponential function using the I–V protocol described above. […]

CC(C)C[C@H](NC(=O)[C@H](CC(=O)O)NC(=O)[C@H](Cc1ccc(O)cc1)NC(=O)[C@H](CCCCN)NC(=O)[C@@H]1CSSC[C@@H]2NC(=O)[C@H](CCCCN)NC(=O)[C@H](CC(=O)O)NC(=O)[C@H](CC(N)=O)NC(=O)[C@H](CO)NC(=O)[C@@H]3CCCN3C(=O)[C@H](CC(N)=O)NC(=O)[C@@H]3CSSC[C@H](NC(=O)[C@H](C(C)C)NC(=O)[C@H](CC(C)C)NC(=O)[C@H](CO)NC(=O)[C@H](CO)NC(=O)[C@H](CO)NC(=O)[C@H](CCCCN)NC(=O)[C@H](CSSC[C@H](NC(=O)[C@H](C)N)C(=O)N[C@@H](CC(C)C)C(=O)NCC(=O)N[C@@H](Cc4ccccc4)C(=O)NCC(=O)N[C@@H](CCC(=O)O)C(=O)N[C@@H](CCCCN)C(=O)N3)NC2=O)C(=O)N[C@@H](CO)C(=O)N[C@@H](CCC(N)=O)C(=O)N[C@@H](CCCCN)C(=O)N[C@@H](Cc2c[nH]cn2)C(=O)N[C@@H](CCCCN)C(=O)N[C@@H](Cc2c[nH]c3ccccc23)C(=O)N1)C(=O)O [Ca2a] (H-ACLGFGEKCNPSNDKCCKSSSLVCSQKHKWCKYDL-OH; disulfide 2-17, 9-24, 16-31 (inferred); N-terminus and C-terminus assumed)
τoff, WT Nav1.7 (WT Nav1.7; recovery upon washing with bath solution): 295.6 ± 27.5 s
τon, WT Nav1.7 (WT Nav1.7): 18.0 ± 2.5 s
inhibitory effect on Nav1.4/N655D (Nav1.4/N655D): no inhibitory effect
inhibition of peak current of Nav1.4/Q657E (Nav1.4/Q657E; 1 μM, n = 4–5 cells): significantly inhibited
IC50 (Nav1.4/Q657E; mean ± SEM, n = 4–5 cells per data point): 269 ± 14.9 nM
decrease of Nav1.6 current amplitude (Nav1.6; 1 μM, 50 ms to −10 mV from −100 mV): 78.7 ± 2.9%
IC50 (Nav1.6; whole-cell patch-clamp, n = 4–7 cells per data point): 314 ± 6.3 nM
adverse effects [1]: does not cause significant adverse effects
inactivation time constant of Nav1.7/D816N (Nav1.7/D816N): did not alter inactivation time constant

Reference: article PMC6198068, “Discovery of a Novel Nav1.7 Inhibitor From Cyriopagopus albostriatus Venom With Potent Analgesic Efficacy” (Frontiers in Pharmacology, 2018)
